Experimental data published in US20020155479A1, “Expression cloning method” (Whitehead Institute for Biomedical Research, priority 1999, published 2002).

Assays:
[1] = test system: GLUT4 at the plasma membrane of 3T3-L1 cells; experiment: FACS-based assay of the proportion of GLUT4 reporter at the cell surface, 3T3-L1 cells; set-up: species or system murine
Description: (§1) Confluent cells were reseeded on the indicated day of differentiation to six well plates (Coming, Costar #3506) one day before use in experiments, and were starved in DMEM without fetal bovine serum for at least 3 hours before insulin stimulation. Insulin was generally used at 160 nM; occasionally it was used at 80 nM or 200 nM and no difference was noted between these concentrations in either 3T3-L1 or CHO cells. Insulin was added directly to the wells from a 100×stock. After treatment in the presence or absence of insulin for the times indicated in each figure, cells were quickly transferred to […] and washed with cold phosphate buffered saline (PBS) containing 0.9 mM Ca^++ and 0.5 mM Mg^++ (PBS++). All subsequent steps were carried out at 4° C., and staining of externalized myc epitope was done on adherent cells. Cells were incubated with a 1:200 dilution of anti-myc (9E10) ascites or using 25 μg/ml purified 9E10 in PBS++, 2% bovine serum albumin (BSA), 4% donkey serum for 1.5 hours. Cells were then washed twice in PBS++, for 5 minutes each time. They were then incubated 45 minutes in 12.5 to 25 μg/ml R-phycoerythrin conjugated donkey F(ab′)2 anti-mouse IgG secondary antibody, diluted in PBS++, 2% BSA, 4% donkey serum. Cells were rinsed twice in PBS++, then washed three times in PBS++ for 10 minutes each time, and were resuspended by gentle scraping in PBS++, 2% BSA or PBS++, 5% fetal bovine serum for flow cytometry. For experiments involving insulin removal, cells were chilled as above after insulin stimulation, then washed twice with 5 mM sodium acetate, 150 mM NaCl, pH 4.0 (Kao, A. W., et al., 1998, J Biol Chem 273:25450-7; Yang., J., et al., 1992, J Biol Chem 267:10393-9). Cells were rewarmed in 37° C. DMEM for the times indicated, restimulated or not with insulin, and then returned to 4° C. and chilled with cold PBS++ before staining as above.
(§2) Flow cytometry was done on FACScan or FACSCalibur cytometers (Becton-Dickinson). Appropriate compensation between the FL1 and FL2 channels was set using uninfected (GFP-negative) cells or cells stained with PE only (e.g. using a PE-conjugated anti-transferrin receptor antibody; Pharmingen). […] For each sample, data from ≧10,000 cells were collected. Median fluorescence intensities were used for quantification, since this measure of central tendency is least sensitive to outliers. For each sample, the PE and GFP fluorescence specifically attributable to the presence of the GLUT4 reporter were determined by subtracting background fluorescences, measured using control unstained cells and cells not expressing the reporter, respectively. These control cells were treated with the same conditions (e.g., type of serum and media, amino acid concentrations) used for the experimental cells. The ratio of fluorescence intensities plotted on the vertical axes of many figures is a relative, not absolute, measure of the proportion of GLUT4 at the cell surface. The scales are numbered arbitrarily and are not intended to permit comparison in absolute terms of data obtained in different experiments. In some of the kinetic studies (FIG. 26), the data were subjected to a simple smoothing operation. This consisted of calculating (0.25ra1—0.5rc+0.25rc+1), where r is the ratio of specific fluorescences for timepoint t. This calculated value was used for timepoints t=2 to ten−1, where n is the total number of timepoints. For the last time point t=n, (0.33rc1+0.67r1) was calculated. Basal values of r (r1) were unchanged.
To assay changes in the proportion of GLUT4 present at the plasma membrane, a cDNA encoding a GLUT4 reporter protein was constructed. This protein contains seven c-myc epitope tags in the first exofacial loop of GLUT4, and GFP fused in-frame at the carboxy terminus. […] An anti-myc monoclonal antibody, followed by a phencoerythrin (PE)-conjugated secondary antibody, was used to detect reporter protein present at the surface of living cells. […]

[2] = test system: GLUT4 at the plasma membrane of CHO cells; experiment: FACS-based assay of the proportion of GLUT4 reporter at the cell surface, CHO cells; set-up: species or system Chinese Hamster
Description: as §1, §2
To measure GLUT4 trafficking at the surface of CHO cells, CHO cells expressing the murine ecotropic retroviral receptor were infected with a retrovirus carrying the GLUT4 reporter, and FACS was utilized to isolate cells falling within a narrow range of GFP fluorescence intensities. Upon insulin stimulation of these cells, externalization of the GLUT4 reporter was again noted, as detected by flow cytometry. […]

[3] = test system: GLUT4 at the cell surface of NIH 3T3 cells; experiment: FACS-based assay of the proportion of GLUT4 reporter at the cell surface, NIH 3T3 cells; conditions: NIH 3T3 cells expressing the GLUT4 reporter
Description: Confluent cells were reseeded on the indicated day of differentiation to six well plates (Coming, Costar #3506) one day before use in experiments, and were starved in DMEM without fetal bovine serum for at least 3 hours before insulin stimulation. Insulin was generally used at 160 nM; occasionally it was used at 80 nM or 200 nM and no difference was noted between these concentrations in either 3T3-L1 or CHO cells. Insulin was added directly to the wells from a 100×stock. […]
Flow cytometry was done on FACScan or FACSCalibur cytometers (Becton-Dickinson). […] Median fluorescence intensities were used for quantification, since this measure of central tendency is least sensitive to outliers. For each sample, the PE and GFP fluorescence specifically attributable to the presence of the GLUT4 reporter were determined by subtracting background fluorescences, measured using control unstained cells and cells not expressing the reporter, respectively. […] The ratio of fluorescence intensities plotted on the vertical axes of many figures is a relative, not absolute, measure of the proportion of GLUT4 at the cell surface. […] This consisted of calculating (0.25ra1—0.5rc+0.25rc+1), where r is the ratio of specific fluorescences for timepoint t. This calculated value was used for timepoints t=2 to ten−1, where n is the total number of timepoints. For the last time point t=n, (0.33rc1+0.67r1) was calculated. […]

[4] = test system: GLUT4 in the plasma membrane fraction of 3T3-L1 cells; experiment: Subcellular fractionation and immunoblotting of GLUT4 in plasma membrane fraction, 3T3-L1 cells; type: cell-based, murine
Text: Four 10 cm plates of 3T3-L1 adipocytes were used per condition to isolate low density microsomal and plasma membrane fractions for FIG. 17B. Eight and ten plates per condition were used to isolate low density microsomes for analysis by sucrose density gradient centrifugation (FIG. 17C) and in vesicle immunopurification experiments (FIG. 17D), respectively. Five plates of adipocytes and ten plates of preadipocytes were used per condition in experiments presented in FIGS. 19B and 20B, respectively. For experiments presented in FIGS. 17B and 17D cells were serum starved overnight, treated with the presence or absence of insulin (160 nM, 10 min.), then transferred to 4° C. and washed with cold PBS++. For the vesicle immunopurification (FIG. 17D) cells were starved overnight, then transferred to 4° C. and washed with cold PBS++ without insulin stimulation. For kinetic studies (FIGS. 19B), 480 nM insulin was used (added from a prewarmed 3×stock) in order to maximally and simultaneously stimulate all of the cells on each 10 cm dish. Cell were transferred to 4° C. and washed with cold PBS++ at the indicated times. In all cases, cells were next washed once with cold 250 mM sucrose, 10 mM Tris pH 7.4, 0.5 mM EDTA (Buffer A). Cells were resuspended by scraping in cold Buffer A with Complete protease inhibitors (Roche), then homogenized using 16 strokes (4 plates) or 25 strokes (8 plates) in a Dounce-type teflon tissue grinder (Kontes #22, VWR). All subsequent steps were performed at 4° C. […]
The supernatant from the initial centrifugation was recentrifuged at 19,000 rpm in an SS-34 rotor (43,000×g) for 30 minutes. […] Equal volumes of each fraction were analyzed by SDS-PAGE and immunoblotting, and the total protein content in each fraction was determined using the micro-BCA kit (Pierce). In experiments where LDM and PM fractions were analyzed directly (without sedimentation of the LDM), total protein content was first determined and then equal amounts of protein were analyzed by SDS-PAGE and immunoblotting.

[5] = test system: GLUT4 reporter in AML12 hepatocyte cell line; experiment: GLUT4 reporter translocation in AML12 hepatocyte cell line; type: cell-based; conditions: AML12 cells; data not shown
[6] = test system: GLUT4 at the cell surface of adipocytes; conditions: <10% in the absence of insulin; cited from earlier work
[7] = 3T3-L1 preadipocytes and adipocytes
[8] = all days of 3T3-L1 differentiation, 80 nM insulin

Compound: CO[C@H]1C[C@@H]2CC[C@@H](C)[C@@](O)(O2)C(=O)C(=O)N2CCCC[C@H]2C(=O)O[C@H]([C@H](C)C[C@@H]2CC[C@@H](O)[C@H](OC)C2)CC(=O)[C@H](C)/C=C(\C)[C@@H](O)[C@@H](OC)C(=O)[C@H](C)C[C@H](C)/C=C/C=C/C=C/1C [rapamycin, reference compound]
- decrease in amount of GLUT4 reporter per cell (GFP fluorescence) ([1]; 3T3-L1 adipocytes, after rapamycin treatment, data not shown): ≤ 10%
- change in amount of GLUT4 reporter protein (GFP fluorescence) ([2]; CHO cells, after rapamycin treatment, data not shown): ≤ 10%

Compound: insulin
- subsequent decrease to steady-state, of peak response ([1]; 3T3-L1 adipocytes, FIG. 19A): ~20%
- peak response over basal ([1]; 3T3-L1 adipocytes, average of Day 8 and 10, FIG. 19A): 5.4 fold
- time at which steady-state level of cell surface GLUT4 is reached [1, 7]: about 15 minute
- time of peak plasma membrane GLUT4 after insulin addition [1, 7]: about 5 minute
- increase in plasma membrane GLUT4 ([1]; 3T3-L1 preadipocytes and adipocytes, peak after insulin addition): about 5 fold
- increase in cell-surface GLUT4 ([1]; 3T3-L1 preadipocytes, 5 minutes after insulin addition): fourfold
- fall of the fraction of GLUT4 on the plasma membrane after the peak [1, 8]: 20% to 40
- time of greatest proportion of GLUT4 on the plasma membrane after insulin addition [1, 8]: four to five
- time to steady-state after insulin addition [1, 8]: 15 to 20 min
- increase in the fraction of GLUT4 present at the plasma membrane ([1]; confluent 3T3-L1 preadipocytes cultured in 10% calf serum or 10% fetal bovine serum, 5 minutes): four-fold
- time at which steady-state level of cell surface GLUT4 is reached ([2]; CHO cells): about 15 minute
- time of peak plasma membrane GLUT4 after insulin addition ([2]; CHO cells): about 5 minute
- peak fraction of GLUT4 at the cell surface relative to unstimulated cells ([2]; CHO cells cultured in DMEM): 5.5 fold
- time of peak GLUT4 externalization after insulin addition ([2]; CHO cells cultured in DMEM): four to five
- time to steady-state after insulin addition ([2]; CHO cells cultured in DMEM): twenty
- part of the increase eliminated in the subsequent decrease ([2]; CHO cells cultured in DMEM, several experiments): 50% to 60
- overshoot of the final, steady-state proportion of GLUT4 at the cell surface ([2]; CHO cells cultured in F12 medium): no overshoot
- increase in plasma membrane GLUT4 ([2]; CHO cells, peak after insulin addition): about 5 fold
- shift of the population upward along the PE (myc) axis ([2]; confluent CHO cells expressing the GLUT4 reporter, FIG. 17F): ~5 fold
- increase in the proportion of GLUT4 at the cell surface [3]: twofold
- increases in the plasma membrane fraction (insulin/basal) ([4]; 3T3-L1 adipocytes, native GLUT4 and reporter protein, insulin 160 nM, 10 min, densitometry of several experiments): 5- to 10 fold
- time of peak response of GLUT4 reporter in the PM fraction after insulin addition ([4]; 3T3-L1 preadipocytes expressing the GLUT4 reporter): 8 min
- time of peak GLUT4 in the PM fraction after insulin addition ([4]; endogenous GLUT4, uninfected 3T3-L1 adipocytes, 480 nM insulin): 7 min
- insulin-stimulated translocation of the GLUT4 reporter [5]: minimal translocation
- overshoot of the steady-state response [5]: no overshoot
- proportion of GLUT4 at the cell surface in the presence of insulin [6]: 35-50%
